Source: patent USRE36374E, “1,2,3-triazole and tetrazole substituted piperidine or tetrahydropyridine compounds useful as acetylcholine agonists” (priority 1987, dated 1999)
Counter-ions that a name gives are not always drawn. Like-named read-outs stand apart in the source and are kept apart here.

Assays:
[1] = molecular target: central cholinergic receptors; assay: 3H-oxotremorine-M (Oxo-M) displacement from rat brain homogenates; assay type: binding; details: displacement of 3H-oxotremorine-M, pH 7.4, 40 min, 30° C
Procedure: (§1) Affinity to central cholinergic receptors in vitro was measured as the ability of the compounds to displace ^3 H-oxotremorine-M (Oxo-M) from rat brain homogenates, while affinity to central muscarinic M-1-receptors in vitro was measured as the ability of the compounds to displace ^3 H-pirenzepin (Pz) from rat brain homogenates.
^3 H-oxotremorine M binding
was performed essentially as described by Birdsdall et al., 1980. Briefly, rat brains were homogenized in 100 vol (w/v) 10 mM Na,K-phosphate buffer (pH 7.4) and aliquots incubated with ^3 H-oxotremorine M (84.9 Ci/m-mol, NEN) alone or in the presence of test compound in a total volume of 1.5 ml for 40 min. at 30° C. The reaction was stopped by adding 5 ml cold buffer and filtered through Whatman GF/B filters soaked previously in 0.1% polyethylenimin (Sigma) for minimum 30 min. The filters were washed once with the same volume of buffer, transferred to scintillation vials and extracted in scintillation fluid (Pico-fluor 15, Packard) for at least two hours before counted in a liquid scintillation spectrometer (Beckman LS 1800). Non-specific binding was estimated at 10 μM atropine and all estimations made in triplicate. At least two displacement curves were made for each compound tested.
Birdsdall N. J. M., Hulme E. C., and Burgen A. S. V. (1980). "The Character of Muscarinic Receptors in Different Regions of the Rat Brain". Proc. Roy. […] London (Series B) 207, 1.

[2] = molecular target: T1, central muscarinic M-1-receptors (Rattus norvegicus, UniProt P08482); assay: 3H-pirenzepine (Pz) displacement from rat brain homogenates; assay type: binding
T1 sequence (P08482 1-460): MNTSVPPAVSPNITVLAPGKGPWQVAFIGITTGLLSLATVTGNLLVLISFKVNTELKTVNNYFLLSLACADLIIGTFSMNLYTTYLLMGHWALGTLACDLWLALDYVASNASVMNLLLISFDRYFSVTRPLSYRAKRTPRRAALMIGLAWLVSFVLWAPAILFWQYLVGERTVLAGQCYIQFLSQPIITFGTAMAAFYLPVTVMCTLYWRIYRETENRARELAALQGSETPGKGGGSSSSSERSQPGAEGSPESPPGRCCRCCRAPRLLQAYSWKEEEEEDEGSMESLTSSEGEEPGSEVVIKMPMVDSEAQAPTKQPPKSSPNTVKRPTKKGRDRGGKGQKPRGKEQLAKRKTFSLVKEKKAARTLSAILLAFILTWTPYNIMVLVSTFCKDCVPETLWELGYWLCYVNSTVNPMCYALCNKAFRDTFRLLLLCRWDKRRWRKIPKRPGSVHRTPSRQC
Procedure: as §1
was performed essentially as described by Watson et al., 1983, the conditions being very much the same as for ^3 H-oxotremorine binding, except that aliquots were incubated with 1.0 nM ^3 H-pirenzepine for 60 min. at 25° C. and that the reaction was stopped by direct filtration followed by 3 washes with 4 ml buffer.
Watson, M., Yamamura, H. I., and Roeske, W. R. (1983). "A unique regulatory profile and regional distribution of ^3 H-pirenzepin binding in the rat provide evidence for distinct M1 and M2 muscarinic receptor subtypes". Life Sci. 32 (1983) 3001-3011.

[3] = displacement of 1.0 nM 3H-pirenzepine, rat brain homogenates, 60 min, 25° C, read-out: Pz, IC50

Compound	IC50 [1] [nM]	IC50 [2] [nM]	IC50 [2, 3] [nM]
Cn1nnc(C2CCCNC2)n1 (centres unmarked) [Compound 13, 2-Methyl-(3-piperidyl)-2H-tetrazole, hydrochloride]	47	3600	–
COc1cnc(C2=CCCN(C)C2)o1 [Compound 80, 5-Methoxy-2-(1-methyl-1,2,5,6-tetrahydro-3-pyridyl)-oxazol, oxalate]	–	–	1500
Cc1coc(C2=CCCN(C)C2)n1 [Compound 84, 4-Methyl-2-(1-methyl-1,2,5,6-tetrahydro-3-pyridyl)-oxazole, oxalate]	28	–	58
CCn1nnc(C2=CCCNC2)n1 [Compound 19, 2-Ethyl-5-(1,2,5,6-tetraydro-3-pyridyl)-2H-tetrazole, hydrobromide]	32	–	1500
COc1cnc(C2=CCCNC2)o1 [Compound 81, 5-Methoxy-2-(1,2,5,6-tetrahydro-3-pyridyl)-oxazole, 1.25 fumarate]	220	–	4200
Cc1cc(C2=CCCN(C)C2)nn1C [Compound 95, 1,5-Dimethyl-3-(1-methyl-1,2,5,6-tetrahydro-3-pyridyl)-pyrazole, dihydrochloride]	350	–	180
CN1CCC=C(c2ncn(C)n2)C1 [Compound 59, 1-Methyl-3(1-methyl-1,2,5,6-tetrahydro-3-pyridyl)-1,2,4-triazole, hemifumarate]	280	–	610
C#CCn1nnc(C2=CC(C)CNC2)n1 (centres unmarked) [Compound 50, 2-(2-Propynyl)-5-(5-methyl-1,2,5,6-tetrahydro-3-pyridyl)-2H-tetrazole hydrochloride]	62	–	68
Cn1ncc(C2=CCCNC2)n1 [Compound 72, 2-Methyl-4-(1,2,5,6-tetrahydro-3-pyridyl)-1,2,3-triazole, fumarate]	0.48	–	790
C=C=Cn1nnc(C2=CCCNC2)n1 [Compound 23, 2-Allenyl-5-(1,2,5,6-tetrahydro-3-pyridyl)-2H-tetrazole, hydrochloride]	140	–	1100
C#CCn1nnc(C2=CCC(C)NC2)n1 (centres unmarked) [Compound 36, 2-(2-Propynyl-5-(6-methyl-1,2,5,6-tetrahydro-3-pyridyl)-2H-tetrazole, hydrochloride]	390	–	250
CC1CC=C(c2nnn(C(C)C)n2)CN1 (centres unmarked) [Compound 33, 2-Isopropyl-5-(6-methyl-1,2,5,6-tetraydro-3-pyridyl)-2H-tetrazole, hydrobromide]	320	–	900
Cc1coc(C2=CCCNC2)n1 [Compound 85, 4-Methyl-2-(1,2,5,6-tetrahydro-3-pyridyl)-oxazole, fumarate]	7.5	–	1400
Cc1cnc(C2=CCCNC2)s1 [Compound 91, 5-Methyl-2-(1,2,5,6-tetrahydro-3-pyridyl)-thiazole, fumarate]	360	–	1000
Cc1cnc(C2=CCCN(C)C2)s1 [Compound 90, 5-Methyl-2-(1-methyl-1,2,5,6-tetrahydro-3-pyridyl)-thiazole, hemifumarate]	180	–	420
CN1CCC=C(c2cnn(C)n2)C1 [Compound 70, 2-Methyl-4-(1-methyl-1,2,5,6-tetrahydro-3-pyridyl)-1,2,3-triazole, 1.5 fumarate]	1.1	–	5.5
CC1C=C(c2nnn(C)n2)CN(C)C1 (centres unmarked) [Compound 48, 2-Methyl-5-(1,5-dimethyl-1,2,5,6-tetrahydro-3-pyridyl)-2H tetrazole, oxalate]	680	–	1800
C#CCn1nnc(C2CCCNC2)n1 (centres unmarked) [Compound 26, 2-(2-Propynyl)-5-(3-piperidyl)2H-tetrazole, hydrochloride]	44	400	–

Compound	IC50 [1] [nM]	IC50 [2] [nM]	IC50 [2, 3] [nM]
CC(C)n1nnc(C2=CCCN(C)C2)n1 [Compound 16, 2-Isopropyl-5-(1-methyl-1,2,5,6-tetrahydro-3-pyridyl)-2H-tetrazole, fumarate]	120	–	130
CSc1cnc(C2=CCCN(C)C2)s1 [Compound 93, 5-Methylthio-2-(1-methyl-1,2,5,6-tetrahydro-3-pyridyl)-thiazole, fumarate]	18	–	130
C#CCn1nnc(C2=CCCNC2)n1 [Compound 22, 2-(2-Propynyl)-5-(1,2,5,6-tetrahydropyridyl)-2H-tetrazole, hydrochloride]	–	–	380
CCn1nnc(C2=CCCN(C)C2)n1 [Compound 20, 2-Ethyl-5-(1-methyl-1,2,5,6-tetrahydro-3-pyridyl)-2H-tetrazole, oxalate]	16	–	130
Cc1nc(C2=CCCN(C)C2)nn1C [Compound 63, 1,5-Dimethyl-3-(1-methyl-1,2,5,6-tetraydro-3-pyridyl)-1,2,4-triazole, fumarate]	710	–	160
CN1CCCC(c2nnn(C)n2)C1 (centres unmarked) [Compound 14, 2-Methyl-5-methyl-3-piperidyl)-2H-tetrazole, oxalate]	1700	–	7400
CC(C)n1nnc(C2=CCCNC2)n1 [Compound 17, 2-Isopropyl-5-(1,2,5,6-tetrahydro-3-pyridyl)-2H-tetrazole, hydrobromide]	280	–	480
CN1CCC=C(C2=NC(C)(C)CO2)C1 [Compound 87, 4,4-Dimethyl-2-1-methyl-1,2,5,6-tetrahydro-3-pyridyl)-oxazoline, fumarate]	130	–	400
Cn1nnnc1C1=CCCNC1 [Compound 9, 1-Methyl-5(1,2,5,6-tetrahydro-3-pyridyl)-2H-tetrazole, fumarate]	3200	–	27000
Cc1cc(C2=CCCNC2)no1 [Compound 55, 5-Methyl-3-(1,2,5,6-tetrahydro-3-pyridyl)-isoxazole, hydrochloride]	1000	–	2500
CC1=C(c2nnn(C)n2)CNCC1 [Compound 39, 2-Methyl-5-(4-methyl-1,2,5,6-tetrahydro-3-pyridyl)-2H-tetrazole, 0.75 oxalate]	810	–	1500
CC1=C(c2nnn(C)n2)CN(C)CC1 [Compound 38, 2-Methyl-5(1,4-dimethyl-1,2,5,6-tetrahydro-3-pyridyl)-2H-tetrazole, oxalate]	1000	–	1200
CN1CCC=C(c2nnn(C)n2)C1 [Compound 10, 2-Methyl-5-(1-methyl-1,2,5,6-tetrahydro-3-pyridyl)2H-tetrazole]	8.7	–	390
Cc1cc(C2=CCCNC2)on1 [Compound 54, 3-Methyl-5(1,2,5,6-tetrahydro-3-pyridyl)-isoxazole, maleate]	230	–	4000
Cc1cnc(C2=CCCN(C)C2)o1 [Compound 75, 5-Methyl-2-(1-methyl-1,2,5,6-tetraydro-3-pyridyl)-oxazole, oxalate]	57	–	370
CC1CC=C(c2nnn(C)n2)CN1C (centres unmarked) [Compound 31, 2-Methyl-5-(1,6-dimethyl-1,2,5,6-tetrahydro-3-pyridyl)-2H-tetrazole]	310	–	140
CC1CC=C(c2nnn(C(C)C)n2)CN1C (centres unmarked) [Compound 34, 2-Isopropyl-5-(1,6-dimethyl-1,2,5,6-tetrahydro-3-pyridyl)-2H-tetrazole]	180	–	350
